Laboratory results reported in US20100298302A1, “NOVEL PROTEIN KINASE MODULATORS” (priority 2009, published 2010).
Where two headings read alike, the source gives them in different places.

What was measured:
[1] = test system: PC-3 human prostatic cancer cells; assay: Alamar Blue cell proliferation assay, PC3; type: cell-based
Description: (§1) A representative cell-proliferation assay protocol using Alamar Blue dye (stored at 4° C., use 20 ul per well) is described hereafter.
(§2) a. Split and trypsinize cells.
(§3) b. Count cells using hemocytometer.
(§4) c. Plate 4,000-5,000 cells per well in 100 μl of medium and seed into a 96-well plate according to the following plate layout. Add cell culture medium only to wells B10 to B12. Wells B1 to B9 have cells but no compound added.
(§5) d. Add 100 μl of 2× drug dilution to each well in a concentration shown in the plate layout above. At the same time, add 100 μl of media into the control wells (wells B10 to B12). Total volume is 200 μl/well.
(§6) e. Incubate four (4) days at 37° C., 5% CO2 in a humidified incubator.
(§7) f. Add 20 μl Alamar Blue reagent to each well.
(§8) g. Incubate for four (4) hours at 37° C., 5% CO2 in a humidified incubator.
(§9) h. Record fluorescence at an excitation wavelength of 544 nm and emission wavelength of 590 nm using a microplate reader.
(§10) In the assays, cells are cultured with a test compound for approximately four days, the dye is then added to the cells and fluorescence of […] dye is detected after approximately four hours. Different types of cells can be utilized in the assays (e.g., HCT-116 human colorectal carcinoma cells, PC-3 human prostatic cancer cells, MDA-MB231 human breast cancer cells, K-562 human chronic myelogenous leukemia (CML) cells, MiaPaca human pancreatic carcinoma cells, MV-4 human acute myeloid leukemia cells, and BxPC3 human pancreatic adenocarcinoma cells).

recombinant PIM-1 = recombinant PIM-1 (Homo sapiens, UniProt P11309); assay: PIM-1 kinase assay; type: biochemical
Method in brief: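 Recombinant PIM-1 (1 ng) with 100 uM KKRNRTLTK peptide, 15 uM ATP plus [γ-33P]ATP, 10 mM Mg acetate, MOPS pH 7.0, 4% DMSO. Reaction 40 min at 23° C, quenched with phosphoric acid; labeled peptide captured on phosphocellulose filters and counted by scintillation.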

[2] = test system: MDA-MB231 human breast cancer cells; assay: Alamar Blue cell proliferation assay, MDA-MB231; type: cell-based; details: MDA-MB-231, read-out: MDAMB231 IC50
Description: as §1, §2, §3, §4, §5, §6, §7, §8, §9, §10

MV-4-11 = assay: Alamar Blue cell proliferation assay, MV-4-11; type: cell-based; details: Homo sapiens, MV4-11
Method in brief: (§11)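 Cells were seeded at 4,000–5,000/well and exposed to compound dilutions for 4 days at 37 °C, 5% CO2, humidified. Alamar Blue was added for 4 h, with fluorescence read at 544 nm excitation and 590 nm emission. Controls were untreated cells and medium-only wells.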

[3] = test system: MiaPaca human pancreatic carcinoma cells; assay: Alamar Blue cell proliferation assay, MiaPaCa; type: cell-based; details: MIA PaCa-2
Description: as §1, §2, §3, §4, §5, §6, §7, §8, §9, §10

[4] = test system: K-562 human chronic myelogenous leukemia (CML) cells; assay: Alamar Blue cell proliferation assay, K-562; type: cell-based
Method in brief: as §11

[5] = test system: leukemic cells from AML patients; details: cited from earlier work
MV-4-11 (AML) xenograft = MV-4-11 (AML) xenograft model; cited from earlier work
MOLM-13 (AML) xenograft = MOLM-13 (AML) xenograft model; cited from earlier work
SUM-149PT = assay: Alamar Blue cell proliferation assay, SUM-149PT; type: cell-based; details: Homo sapiens, SUM149PT
Description: as §1, §2, §3, §4, §5, §6, §7, §8, §9, §10

[6] = test system: BxPC3 human pancreatic adenocarcinoma cells; assay: Alamar Blue cell proliferation assay, BxPC3; type: cell-based; details: BXPC-3
Description: as §1, §2, §3, §4, §5, §6, §7, §8, §9, §10

MDA-MB45 = assay: Alamar Blue cell proliferation assay, MDA-MB45; type: cell-based
Description: as §1, §2, §3, §4, §5, §6, §7, §8, §9, §10

recombinant human PIM2 = recombinant human PIM2 (Homo sapiens, UniProt Q9P1W9); assay: PIM-2 kinase assay; type: biochemical
Description: Test compounds dissolved and diluted in DMSO (2 μl) were added to a reaction mixture comprising 10 μl of 5× Reaction Buffer (40 mM MOPS pH 7.0, 5 mM EDTA), 10 μl of recombinant human PIM2 solution (4 ng PIM-2 dissolved in dilution buffer (20 mM MOPS pH 7.0; EDTA 1 mM; 5% Glycerol; 0.01% Brij 35; […]; […] 2-mercaptoethanol; 1 mg/ml BSA)) and 8 ul of water. Reactions were initiated by the addition of 10 ul of ATP Solution ([…] (15 mM MgCl2; 75 uM ATP) 1% ([γ-33P]ATP: Stock 1 mCi/100 μl; 3000 Ci/mmol (Perkin Elmer)) and 10 ul of substrate peptide solution (RSRSSYPAGT, dissolved in water at a concentration of 1 mM), Reactions were maintained for 10 min at 30° C. The reactions were quenched with 100 ul of 0.75% Phosphoric acid, then transferred to and filtered through a Phosphocellulose filter plate (Millipore, MSPH-N6B-50). After washing each well 4 times with 0.75% Phosphoric acid, scintillation fluid (20 uL) was added to each well and the residual radioactivity was measured using a Wallac luminescence counter.

recombinant human CK2 = molecular target: T1, recombinant human CK2 (Homo sapiens, UniProt P68400); assay: cell-free CK2 assay; type: biochemical
T1 construct: purchased Upstate
Description: Modulatory activity of compounds described herein was assessed in vitro in cell-free CK2 assays by the following method.
Test compounds in aqueous solution were added at a volume of 10 microliters, to a reaction mixture comprising 10 microliters Assay Dilution Buffer (ADB; 20 mM MOPS, pH 7.2, 25 mM beta-glycerolphosphate, 5 mM EGTA, 1 mM sodium orthovanadate and 1 mM dithiothreitol), 10 microliters of substrate peptide (RRRDDDSDDD, dissolved in ADB at a concentration of 1 mM), 10 microliters of recombinant human CK2 (25 ng dissolved in ADB; Upstate). Reactions were initiated by the addition of 10 microliters of ATP Solution (90% 75 mM MgCl2, 75 micromolar ATP dissolved in ADB; 10% [γ-^33P]ATP (stock 1 mCi/100 μl; 3000 Ci/mmol (Perkin Elmer) and maintained for 10 minutes at 30 degrees C. The reactions were quenched with 100 microliters of 0.75% phosphoric acid, then transferred to and filtered through a phosphocellulose filter plate (Millipore). After washing each well 5 times with 0.75% phosphoric acid, the plate was dried under vacuum for 5 min and, following the addition of 15 ul of scintilation fluid to each well, the residual radioactivity was measured using a Wallac luminescence counter.

FLT3 = molecular target: T2, FLT3 (Homo sapiens, UniProt P36888); assay: FLT3 inhibition; type: biochemical
T2 sequence (P36888 27-993): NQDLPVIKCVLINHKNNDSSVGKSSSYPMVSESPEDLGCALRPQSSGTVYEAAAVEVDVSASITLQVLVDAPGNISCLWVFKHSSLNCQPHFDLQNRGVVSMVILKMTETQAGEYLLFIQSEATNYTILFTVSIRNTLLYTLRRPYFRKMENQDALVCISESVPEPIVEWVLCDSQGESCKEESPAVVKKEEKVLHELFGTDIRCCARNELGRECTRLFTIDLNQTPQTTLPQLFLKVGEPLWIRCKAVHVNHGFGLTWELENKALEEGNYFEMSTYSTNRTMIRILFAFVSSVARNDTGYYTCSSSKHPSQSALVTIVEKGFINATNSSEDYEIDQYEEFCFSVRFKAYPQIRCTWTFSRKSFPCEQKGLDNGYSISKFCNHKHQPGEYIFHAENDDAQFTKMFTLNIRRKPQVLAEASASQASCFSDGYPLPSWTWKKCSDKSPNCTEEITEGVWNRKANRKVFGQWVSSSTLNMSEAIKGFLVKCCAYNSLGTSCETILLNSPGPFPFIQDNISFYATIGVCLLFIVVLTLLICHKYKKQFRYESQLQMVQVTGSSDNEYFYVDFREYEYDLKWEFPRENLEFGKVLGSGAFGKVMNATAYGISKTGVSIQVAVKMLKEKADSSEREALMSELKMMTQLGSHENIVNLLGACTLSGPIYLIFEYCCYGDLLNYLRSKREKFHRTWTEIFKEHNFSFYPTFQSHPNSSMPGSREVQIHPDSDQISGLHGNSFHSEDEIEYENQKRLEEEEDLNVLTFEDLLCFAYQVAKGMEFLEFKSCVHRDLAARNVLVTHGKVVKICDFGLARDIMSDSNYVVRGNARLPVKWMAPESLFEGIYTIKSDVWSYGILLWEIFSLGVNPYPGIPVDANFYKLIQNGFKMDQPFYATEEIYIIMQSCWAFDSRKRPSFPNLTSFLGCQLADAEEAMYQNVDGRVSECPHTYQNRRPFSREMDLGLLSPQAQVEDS

recombinant PIM-1, sequence (P11309 whole entry): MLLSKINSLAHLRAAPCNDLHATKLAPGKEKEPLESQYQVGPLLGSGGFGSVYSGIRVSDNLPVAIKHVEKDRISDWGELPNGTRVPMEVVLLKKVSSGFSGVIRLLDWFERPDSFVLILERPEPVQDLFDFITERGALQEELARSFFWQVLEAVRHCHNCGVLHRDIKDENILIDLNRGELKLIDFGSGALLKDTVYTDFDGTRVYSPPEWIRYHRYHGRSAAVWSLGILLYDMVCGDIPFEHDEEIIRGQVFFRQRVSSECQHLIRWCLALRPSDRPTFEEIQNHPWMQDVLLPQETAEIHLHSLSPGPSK
T1 sequence (P68400 whole entry): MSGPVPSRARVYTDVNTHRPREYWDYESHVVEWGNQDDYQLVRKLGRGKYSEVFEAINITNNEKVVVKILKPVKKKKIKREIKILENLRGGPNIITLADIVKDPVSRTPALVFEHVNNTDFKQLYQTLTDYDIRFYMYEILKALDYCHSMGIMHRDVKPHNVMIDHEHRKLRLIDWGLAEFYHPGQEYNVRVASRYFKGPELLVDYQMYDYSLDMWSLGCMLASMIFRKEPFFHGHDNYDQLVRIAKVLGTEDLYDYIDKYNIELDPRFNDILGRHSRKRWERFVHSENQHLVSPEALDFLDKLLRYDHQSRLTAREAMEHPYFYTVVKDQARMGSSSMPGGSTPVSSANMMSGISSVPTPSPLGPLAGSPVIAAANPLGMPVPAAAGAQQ
T1 sequence (P67870 whole entry partner): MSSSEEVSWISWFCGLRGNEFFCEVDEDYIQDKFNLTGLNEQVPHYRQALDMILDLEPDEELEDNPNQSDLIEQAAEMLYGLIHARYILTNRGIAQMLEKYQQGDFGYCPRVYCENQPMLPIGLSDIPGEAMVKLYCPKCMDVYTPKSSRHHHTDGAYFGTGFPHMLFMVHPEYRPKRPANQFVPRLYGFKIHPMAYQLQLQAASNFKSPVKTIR
recombinant human PIM2, sequence (Q9P1W9 whole entry): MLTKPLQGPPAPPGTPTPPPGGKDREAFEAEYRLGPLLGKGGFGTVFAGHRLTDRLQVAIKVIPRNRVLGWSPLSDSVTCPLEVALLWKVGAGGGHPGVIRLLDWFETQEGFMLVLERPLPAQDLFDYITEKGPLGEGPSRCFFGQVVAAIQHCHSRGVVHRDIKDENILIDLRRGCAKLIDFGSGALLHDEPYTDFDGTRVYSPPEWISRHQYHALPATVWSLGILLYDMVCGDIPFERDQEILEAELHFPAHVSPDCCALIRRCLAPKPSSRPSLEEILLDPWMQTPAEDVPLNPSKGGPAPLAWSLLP

`O=C(O)c1ccc2c(c1)nc(NCC(F)(F)F)c1cccn12` showed an IC50 [1] of over 30 µM, an inhibition at 0.5 µM (recombinant PIM-1; 500 nM compound, read-out: PIM1: % inh 500 nM) of 52.9% and an IC50 (recombinant PIM-1; 15 μM ATP, read-out: PIM1: IC50 (15 μM ATP)) of 0.419 µM. For the same compound, the IC50 [2] was over 10 µM, the IC50 (MV-4-11; Table 4) was over 10 µM and the IC50 [3] was over 10 µM. The IC50 ([4]; K562, Table 4) was over 10 µM.
In the case of `CN(C)C[C@@H]1CCn2cc(c3ccccc32)C2=C(C(=O)NC2=O)c2cn(c3ccccc23)CCO1` [Ly5333′531], the “effect on cell growth and cell death” value [5] is listed as “suppressed cell growth and induced cell death”.
For `CN1CCC(CNc2ccc3ncc(-c4cccc(OC(F)(F)F)c4)n3n2)CC1` [SGI-1776], the tumor regression (MV-4-11 (AML) xenograft) is given as “significant tumor regression” and the tumor regression (MOLM-13 (AML) xenograft) is given as “significant tumor regression”.
Compound `Clc1ccccc1Nc1nc2c(-c3nnc[nH]3)cccc2n2cccc12` has an IC50 (SUM-149PT) of under 5 µM, an IC50 [6] of under 10 µM and an IC50 (recombinant PIM-1; Table 5, read-out: PIM1 IC50) of under 0.1 µM. For the same compound, the IC50 (MDA-MB45) was under 5 µM, the IC50 (MV-4-11; Table 5) was under 5 µM and the IC50 (recombinant human PIM2) was under 0.1 µM. It also gave an IC50 (recombinant human CK2) of under 0.1 µM, an IC50 ([4]; K562, Table 5) of over 10 µM and an IC50 (FLT3) of over 10 µM.
